Test results: ChEMBL document CHEMBL5523719, “Structure-activity relationship study of new carbazole sulfonamide derivatives as anticancer agents with dual-target mechanism” (Eur J Med Chem, 2024)
Active and inactive are the calls of the source. The calls are words filed in the database; no cut-off is given here.

What was measured:
MDA-MB-231 = assay: Antiproliferation activity against human MDA-MB-231 cells measured after 72 hrs incubation by MTT assay; assay type: functional, cell-based; conditions: MDA-MB-231, 72 h
L02 = assay: Antiproliferation activity against human L02 cells measured after 72 hrs incubation by MTT assay; assay type: functional, cell-based; conditions: L02, 72 h
MIA PaCa-2 = assay: Antiproliferation activity against human MIA PaCa-2 cells measured after 72 hrs incubation by MTT assay; assay type: functional, cell-based; conditions: MIA PaCa-2, 72 h
NCI/ADR-RES = assay: Antiproliferation activity against human MCF7/ADR cells measured after 72 hrs incubation by MTT assay; assay type: functional, cell-based
MCF7 [1] = assay: Induction of cell cycle arrest in human MCF7 cells assessed as accumulation of cells at G0/G1 phase at 500 nM measured after 24 hrs by flow cytometry (reference value: 61.73%); assay type: functional
HMEC-1 [2] = assay: Anti-proliferative activity against human HMEC-1 cells measured after 48 hrs; assay type: functional, cell-based; conditions: HMEC-1, 48 h
MCF7 [3] = assay: Induction of cell cycle arrest in human MCF7 cells assessed as accumulation of cells at G2/M phase at 500 nM measured after 24 hrs by flow cytometry (reference value: 22.84%); assay type: functional
MCF7 [4] = assay: Antiproliferation activity against human MCF7 cells measured after 72 hrs incubation by MTT assay; assay type: functional, cell-based; conditions: MCF7, 72 h
[5] = Solubility of the compound; assay type: physicochemical
Bel-7402 = assay: Antiproliferation activity against human Bel-7402 cells measured after 72 hrs incubation by MTT assay; assay type: functional, cell-based; conditions: Bel-7402, 72 h
KB = assay: Antiproliferation activity against human KB cells measured after 72 hrs incubation by MTT assay; assay type: functional, cell-based
NCI-H460 = assay: Antiproliferation activity against human NCI-H460 cells measured after 72 hrs incubation by MTT assay; assay type: functional, cell-based; conditions: NCI-H460, 72 h
HepG2 [6] = assay: In vivo antitumor activity against human HepG2 cells xenografted in mouse assessed as inhibition of tumor growth treated iv every other day for 22 days; assay type: functional, organism-based; conditions: time 22.0 day
[7] = Toxicity in mouse xenografted with human HepG2 cells assessed as body weight change at 10 to 20 mg/kg, iv every other day for 22 days; assay type: organism-based; conditions: in vivo, 528 h, dose 10-20 mg/kg, time 22 day
[8] = MRT (0 to last) in Sprague-Dawley rat at 10 mg/kg, iv; assay type: ADME, organism-based; conditions: in vivo
[9] = Initial plasma concentration in Sprague-Dawley rat at 10 mg/kg, iv; assay type: ADME, organism-based
[10] = Half life in Sprague-Dawley rat at 10 mg/kg, iv; assay type: ADME, organism-based; conditions: in vivo
[11] = Clearance in Sprague-Dawley rat at 10 mg/kg, iv; assay type: ADME, organism-based; conditions: in vivo
[12] = AUC (0 to last) in Sprague-Dawley rat at 10 mg/kg, iv; assay type: ADME, organism-based; conditions: in vivo
HepG2 [13] = assay: In vivo antitumor activity against human HepG2 cells xenografted in mouse assessed as inhibition of tumor growth treated at 20 mg/kg, iv every other day for 22 days relative to control; assay type: functional; conditions: HepG2, 528 h, time 22 day, read-out: TGI
HepG2 [14] = assay: In vivo antitumor activity against human HepG2 cells xenografted in mouse assessed as inhibition of tumor growth treated at 50 mg/kg, iv every other day for 22 days relative to control; assay type: functional; conditions: HepG2, 528 h, time 22 day, read-out: TGI
MCF7 [15] = assay: In vivo antitumor activity against human MCF7 cells xenografted in BALB/c mouse assessed as inhibition of Ki-67 expression treated at 50 mg/kg, iv every other day for 26 days; assay type: functional, organism-based; conditions: time 26.0 day
MCF7 [16] = assay: In vivo antitumor activity against human MCF7 cells xenografted in BALB/c mouse assessed as decrease in tumor volume treated at 50 mg/kg, iv every other day for 26 days relative to control; assay type: functional; conditions: MCF7, 624 h, time 26 day
MCF7 [17] = assay: In vivo antitumor activity against human MCF7 cells xenografted in BALB/c mouse assessed as increase in cleaved caspase-3 treated at 50 mg/kg, iv every other day for 26 days; assay type: functional, organism-based; conditions: time 26.0 day
MCF7 [18] = assay: Induction of apoptosis in human MCF7 cells assessed as multinuclear cells at 50 nM measured after 24 hrs by fluorescent microscopy; assay type: functional, cell-based
MCF7 [19] = assay: Induction of apoptosis in human MCF7 cells assessed as viable cells at 50 nM measured after 48 hrs by AnnexinV/PI double staining assays (reference value: 91.20%); assay type: functional; conditions: read-out: Activity
HMEC-1 [20] = assay: Angiogenic activity against human HMEC-1 cells assessed as decrease in vascular area measured after 48 hrs by Endothelial tube formation assay; assay type: functional, cell-based; conditions: dose 1-100 nM
MCF7 [21] = assay: Induction of apoptosis in human MCF7 cells assessed as necrotic cells at 50 nM measured after 48 hrs by AnnexinV/PI double staining assays (reference value: 0.89%); assay type: functional
MCF7 [22] = assay: Induction of apoptosis in human MCF7 cells assessed as early apoptotic cells at 50 nM measured after 48 hrs by AnnexinV/PI double staining assays (reference value: 5.32%); assay type: functional
MCF7 [23] = assay: Induction of apoptosis in human MCF7 cells assessed as late apoptotic cells at 50 nM measured after 48 hrs by AnnexinV/PI double staining assays (reference value: 2.60%); assay type: functional
HMEC-1 [24] = assay: Anti-migration activity in human HMEC-1 cells assessed as inhibition of cell migration at 5 nM measured after 48 hrs by Scratching assay; assay type: functional, cell-based

Structure (SMILES)	IC50 (MDA-MB-231) [nM]	IC50 (L02) [nM]	IC50 (MIA PaCa-2) [nM]	solubility [5] [µg/mL]	IC50 (Bel-7402) [nM]	IC50 (KB) [nM]	IC50 (NCI-H460) [nM]	further results
COc1ccc(NS(=O)(=O)c2ccc3c(c2)c2ccc(N)cc2n3C)c(OC)c1	155	42.2	57.2					
COc1ccc(/C=C\c2cc(OC)c(OC)c(OC)c2)cc1O [COMBRETASTATIN A4]								IC50 (NCI/ADR-RES): 12.5 nM; Activity (MCF7 [1]): 3.41%; IC50 (HMEC-1 [2]): 6.42 nM; Activity (MCF7 [3]): 3.4%; IC50 (MCF7 [4]): 32.7 nM
COc1ccc(NS(=O)(=O)c2ccc3c(c2)c2ccc(N)cc2n3C)c(OC)n1	35.4	109	58.3	< 100	520	40.4	33	
COc1cc(NS(=O)(=O)c2ccc3c(c2)c2ccc(N)cc2n3C)c(OC)cc1N	85.7	30.9	33.2			80.2	76.3	
COc1ccc(NS(=O)(=O)c2ccc3c(c2)c2ccc(NC(=O)[C@@H](N)Cc4ccc(O)cc4)cc2n3C)c(OC)n1.Cl				2000	1880			
COc1ccc(NS(=O)(=O)c2ccc3c(c2)c2ccc(NC(=O)[C@@H](N)CO)cc2n3C)c(OC)n1.Cl				2000	1450			TGI (HepG2 [6]): Dose-Dependent Effect; Activity [7]: Non-Toxic
COc1cc([C@@H]2c3cc4c(cc3[C@H](O)[C@H]3COC(=O)[C@H]23)OCO4)cc(OC)c1OC [PODOFILOX]	80.5	32.8	19.7		40	3.21	24.6	
CC(=O)O[C@H]1C(=O)[C@@]2(C)[C@H]([C@H](OC(=O)c3ccccc3)[C@]3(O)C[C@H](OC(=O)[C@H](O)[C@@H](NC(=O)c4ccccc4)c4ccccc4)C(C)=C1C3(C)C)[C@]1(OC(C)=O)CO[C@@H]1C[C@@H]2O [PACLITAXEL]								IC50 (NCI/ADR-RES): 464 nM; IC50 (MCF7 [4]): 28.7 nM
COc1cc(OC)c(NS(=O)(=O)c2ccc3c(c2)c2ccc(O)cc2n3C)cc1Cl	41.6	33	55.5			70	14.5	
COc1ccc(NS(=O)(=O)c2ccc3c(c2)c2ccc(NC(=O)[C@@H](N)C(C)C)cc2n3C)c(OC)n1.Cl				4000	480			TGI (HepG2 [6]): Dose-Dependent Effect; MRT last [8]: 7.26 min; C0 [9]: 22000 ng/mL; half-life [10]: 34.4 min; clearance [11]: 72.9 mL/min/kg; AUC(0-t) [12]: 2290 ng·h/mL; inhibition in vivo at 20 mg/kg (HepG2 [13]): 71%; Activity [7]: Non-Toxic
COc1ccc(NS(=O)(=O)c2ccc3c(c2)c2ccc(NC(=O)CCN4CCOCC4)cc2n3C)c(OC)n1.Cl				13000	13700			
COc1ccc(NS(=O)(=O)c2ccc3c(c2)c2ccc(NC(=O)CN(C)C)cc2n3C)c(OC)n1.Cl				25000	1400			
COc1cc(OC)c(NS(=O)(=O)c2ccc3c(c2)c2ccc(N)cc2n3C)cc1Cl	29	18	13.3			46	47.5	
COc1cc(NS(=O)(=O)c2ccc3c(c2)c2ccc(O)cc2n3C)cc(OC)c1OC	39.2	43.1	14.6			32	34.6	
COc1ccc(NS(=O)(=O)c2ccc3c(c2)c2ccc(NC(=O)CN)cc2n3C)c(OC)n1.Cl				500	1200			
COc1ccc(/C=C\c2cc(OC)c(OC)c(OC)c2)cc1OP(=O)([O-])[O-].[Na+].[Na+] [FOSBRETABULIN DISODIUM]	3.66	140	5.26			0.66	0.29	inhibition in vivo at 50 mg/kg (HepG2 [14]): 72%; Activity (MCF7 [15]): Active; inhibition in vivo at 50 mg/kg (MCF7 [16]): 77%; Activity [7]: Non-Toxic; Activity (MCF7 [17]): Active
COc1ccc(NS(=O)(=O)c2ccc3c(c2)c2ccc(O)cc2n3C)c(OC)c1	82.8	54.4	52.8			78.8	40.5	
Cn1c2ccc(S(=O)(=O)Nc3cccc(-c4ccn[nH]4)c3)cc2c2ccc(N)cc21	72.5	94.5	61.2			244	325	
COc1ccc(OC)c(NS(=O)(=O)c2ccc3c(c2)c2ccc(N)cc2n3C)c1	18.9	11.6	19.9			18.3	25.5	
COc1ccc(NS(=O)(=O)c2ccc3c(c2)c2ccc(N)cc2n3C)cc1	> 400	> 400	> 400			> 400	> 400	
COc1ccc(NS(=O)(=O)c2ccc3c(c2)c2ccc(O)cc2n3C)c(OC)n1	98.4	51.6	51.8	< 100		104	43.8	Activity (MCF7 [18]): Active; IC50 (NCI/ADR-RES): 88.2 nM; viability at 0.05 µM (MCF7 [19]): 45.6%; Activity (HMEC-1 [20]): Dose-Dependent Effect; Activity (MCF7 [21]): 0.04%; Activity (MCF7 [22]): 39.03%; IC50 (HMEC-1 [2]): 6.42 nM; Activity (MCF7 [23]): 5.65%; inhibition (HMEC-1 [24]): Active; IC50 (MCF7 [4]): 41.5 nM
COc1cc(OC)c(NS(=O)(=O)c2ccc3c(c2)c2ccc(N)cc2n3C)c(OC)c1	39.9	30.9	31			18.1	14	
COc1ccc(NS(=O)(=O)c2ccc3c(c2)c2ccc(NC(=O)CCN(C)C)cc2n3C)c(OC)n1.Cl				11000	5020			
COc1cc(NS(=O)(=O)c2ccc3c(c2)c2ccc(N)cc2n3C)cc(OC)c1OC	16.1	21	24.4			34.5	13.1	
COc1ccc(NS(=O)(=O)c2ccc3c(c2)c2ccc(NC(=O)CCCN4CCOCC4)cc2n3C)c(OC)n1.Cl				6800	8470			
COc1ccc(OC)c(NS(=O)(=O)c2ccc3c(c2)c2ccc(O)cc2n3C)c1	0.93	45.6	0.85			17.5	12.5	
CN1CCN(Cc2ccc(NS(=O)(=O)c3ccc4c(c3)c3ccc(O)cc3n4C)cc2C(F)(F)F)CC1		> 400	> 400			> 400	> 400	
COc1ccc(NS(=O)(=O)c2ccc3c(c2)c2ccc(NC(=O)CN4CCCCC4)cc2n3C)c(OC)n1.Cl				4700	8210			
COc1ccc(NS(=O)(=O)c2ccc3c(c2)c2ccc(NC(=O)CN4CCN(C)CC4)cc2n3C)c(OC)n1.Cl				27000	18700			
